Blank lines part the entries; values can stand above or below the compound they belong to.
What was measured:
[1] = tested on: cerebellar neuron precursors; experiment: Cerebellar neuron precursor proliferation (3H-thymidine incorporation); type: cell-based, rat; conditions: for stimulation of 3H-thymidine incorporation: absence of Hh protein treatment
Protocol: In order to test the efficacy of Hedgehog signaling agonists, the ability of the agonists to stimulate the proliferation of cerebellar neuron precursors was determined. Cerebellar granule neuron precursors are known to respond to Hh protein by proliferating. To test the agonists, cerebellar neurons were dissected out of postnatal (one week) rat brains, and placed into primary cell culture. Treatment agents were added once, on the first day of culture (0 DIV). Cells were left in culture until 2 DIV, when 3H-thymidine was added for 5 hours; the amount of incorporation by the cells of this 3H-thymidine provides a measure of the level of proliferation of the cells. Cells were then lysed, and the incorporation of 3H-thymidine was determined. The positive control was Hh protein, at 1.0 μg/ml final concentration. Hh protein alone caused approximately a 20-fold increase in 3H-thymidine incorporation, consistent with the known ability of Shh to stimulate proliferation of these cells. Non-Hh-protein-stimulated cells, including cells treated with control vehicle (DMSO), had very low levels of proliferation. […] At 5.0 μM, the p-cyanophenyl compound B caused 10.2-fold induction of 3H-thymidine incorporation. […] At 1.0, 0.3, or 0.1 μM, D caused 16-, 17-, or 13-fold induction, respectively, of 3H thymidine incorporation into the cells.

Ptc-1 = experiment: Quantitative RT-PCR (TaqMan) of Ptc-1 transcript in C3H 10T1/2 cells; type: cell-based, Murine; conditions: compound concentration 8 μM
Protocol: (§1) The compounds of FIGS. 32 and 33 were tested for their ability to activate transcription of two well-studied targets of the Hedgehog pathway: the transcription factor Gli-1, and the putative Hedgehog receptor component Ptc-1.
(§2) Murine C3H 10T1/2 cells were seeded at approximately 200,000 cells per well in a 24-well plate in complete medium (10% FBS). After 24 hr, medium was removed and replaced with “starvation” medium (0.5% FBS) containing dilutions of compound or Hh protein. After 16-18 hr, total RNA was prepared using TriZol (Life Technologies, inc.).
(§3) One-microgram aliquots of total RNA were used to prepare random hexamer-primed cDNA with […] Reverse transcriptase (Life Technologies, Inc.).
(§4) To measure the relative levels of Gli-1 and Ptc-1 transcripts, TaqMan assays (PE Biosystems) were performed with an ABI Prism 7700 Sequence Detection System. As an internal control, GAPDH transcript levels were simultaneously measured in each reaction. Data were analyzed using Sequence Detector v 1.6.3 (Perkin Elmer).

Gli-1 = experiment: Quantitative RT-PCR (TaqMan) of Gli-1 transcript in C3H 10T1/2 cells; type: cell-based, Murine; conditions: compound concentration 8 μM
Protocol: as §1, §2, §3, §4

[2] = tested on: hedgehog-responsive Gli-Luc reporter-construct; experiment: Gli-Luc hedgehog pathway reporter assay in [10T1/2(s12)] cells; type: cell-based, murine; conditions: Table 1
Protocol: To measure the hedgehog agonist activity of compounds, we used [10T1/2(s12)] cells containing the hedgehog-responsive Gli-Luc reporter-construct. In each MTP (MicroTiter Plate; 96-well plate), 10,000-20,000 cells were plated per well, in full media (10% FBS). After about 24-48 hr, plates were switched to low-serum media (=0.5%. FBS). Subsequently, a test compound was added at 1-5 μM in the presence or absence of octyl-hedgehog (see below). After another 24 hr, the media from the MTPs was discarded and replaced with luciferase assay-mix, containing lysis-buffer with luciferase substrate. The plates were incubated at RT for about 15-30 min and read in a luminometer.
Plates were incubated for 48 hr before switching to low-serum. Compounds were screened at 1-2 μM in the presence of Hh protein (0.01 μg/ml; EC30=about 30% of max-induced activity).
Plates were incubated for 24 hr before switching to low-serum. Compounds were screened at 5 μM without adding Hh protein.
From Screen A, we identified hits identified in FIGS. 32 and 33. The 1,4-diaminocyclohexane subunit of the compounds of FIG. 32 which include this moiety have the two amino substituents disposed in a trans-relationship, e.g., both substituents equatorial on the cyclohexane subunit. These hits were confirmed in Screen B. The data shown in FIGS. 34a and 34b essentially involved dosing the two compounds in both assays (Gli-Luc & SV-Luc).
The data from the Gli-Luc assay is converted to percent activity where full activity with Hh protein is set at 100% (FIG. 35; Table 1). […] Furthermore, the compounds show a more striking induction in the presence of hedgehog (EC50=0.2-0.3 μM, ECmax=70-90% of max induced activity with Hh protein), indicating a synergy between the compounds and Hh protein, consistent with the compounds serving as agonists for the hedgehog pathway.

ptc-1 (d11) lacZ lungs = experiment: Lung branching assay (ptc-1 lacZ lung explants); type: cell-based, mouse; conditions: 5 μM, 48 hrs
Protocol: (§5) E12.5 old ptc-1 (d11) lacZ lungs were harvested and transgenic embryos identified by lacZ detection using tails. Explants were assembled on 1 μm polycarbonate filters (Costar) placed on top of plastic grids (histology embedding chamber) and placed in standard 12-well tissue culture plates filled with lung explant culture medium (DMEM based, additives optimized for the culture of mouse lungs) for 48 hrs, fixed in lacZ fixative, rinsed and stained for lacZ O/N at 37° C.

[3] = tested on: patched (ptc-lacZ β-galactosidase reporter); experiment: Ptc-lacZ reporter mice assay (X-gal staining of tissues); type: in vivo; conditions: agonist 15 mg/kg/injection 4X/day + dipal-Shh 1 mg/kg/injection 2X/day, four days from first day after birth
Protocol: Mice with a β-galactosidase transgene (ptc-lacZ mice) under the regulatory control of the patched locus express the β-galactosidase protein in the same cells where the endogenous mouse patched gene is expressed. The β-galactosidase protein can thus be used as a faithful reporter of the expression of the endogenous patched gene.
Ptc-lacZ mice were divided into four treatment groups and were treated with the following compounds or combinations of compounds for four days, beginning on the first day after birth (dipal-Shh=dipalmitoylated Sonic hedgehog):
The vehicle for the agonist was 10% DMSO in PBS (pH 7.2). The agonist was injected from a 4.67 mM stock dissolved in the vehicle solution.
18 hours following the last injections, the mice were sacrificed and the following tissues were collected: skull, kidney, lung, scapula, skin and heart. All tissues were fixed in 0.2% glutaraldehyde, 5 mM EDTA (pH 8.0), 20 mM MgCl2, 100 mM Na2HPO4 for 30 minutes before staining in 1 mg/ml X-gal, 12.5 mM potassium ferrocyanide, 12.5 mM potassium ferricyanide, 2 mM MgCl2, 0.01% deoxycholate, 0.02% NP-40, and 100 mM Na2HPO4 for 30 hours. Tissues were judged for relative intensity and photographed.
FIG. 42: Ptc-lacZ mice were divided into two treatment groups and were treated with the following compounds for three days, beginning on the first day after birth:
The vehicle for the agonist was 10% DMSO in PBS (pH 7.2). The agonist was injected from a 1.0 mM stock dissolved in the vehicle solution.
Eighteen hours following the last injections, the mice were sacrificed and the forelimbs were collected and processed as described above.
In a third experiment, Ptc-lacZ mice were divided into five treatment groups and were treated with the following compounds for four days, beginning on the first day after birth:
The vehicle for the agonist was 10% DMSO in PBS (pH 7.2). The agonist was injected from stocks of 0.3, 0.1 and 0.03 mM dissolved in the vehicle solution.

[4] = tested on: ptc-1 (d11) lacZ kidney explants; experiment: Kidney branching assay (ptc-1 lacZ kidney explants); type: cell-based, mouse; conditions: 5 μM, 48 hrs
Protocol: as §5, with “E13.5 old” for “E12.5 old”, “with kidney” for “with lung”

ptc-lacZ skin punches = experiment: Skin explants from ptc-lacZ pups (X-Gal stain); type: cell-based, mouse; conditions: cultured 6 days
Protocol: Skin from ptc-lacZ E17.5 pups was excised with a 2 mm skin punch. Those skin punches were then cultured for 6 days in control media, or media including either agonist B or D or Hh protein, or media including both an agonist and Hh protein. The explants were then stained with X-Gal stain.

[5] = tested on: HEPM cells with a Gli-Luc construct; experiment: Gli-Luc reporter in human embryonic palatal mesenchyme (HEPM) cells; type: cell-based
From the text: FIGS. 47A and B compare the activity of subject compounds O and R in mouse reporter cells (TM3 cells with a Gli-Luc reporter construct, as described above) and in human reporter cells (human embryonic palatal mesenchyme (HEPM) cells with a Gli-Luc construct).

[6] = tested on: neural precursor cells (SVZ and SG); experiment: Neural precursor cell proliferation (BrdU) after oral administration in adult mouse; type: in vivo; conditions: 7 days BID, 10 mg/kg or 25 mg/kg
Protocol: To test whether oral administration of the Hh agonist would affect proliferation of precursor cells, mice were dosed daily (once or twice/day, po) with either vehicle or the Hh agonist X″ for 1-7 days. On the appropriate day, mice were injected with BrdU (ip) and 2 hours later euthanized, perfused with fixative and brains processed for BrdU immunohistochemistry. The number of BrdU-IR cells was counted in both the SVZ and subgranular zone of the hippocampal dentate gyrus (SG).
The data shown in FIGS. 57 and 58 are from a study in which mice were dosed orally for 7 days (BID) with either vehicle (n=4) or Hh agonist X″ (10 mg/kg, n=3 or 25 mg/kg, n=3). The day after the final dose, mice were injected with BrdU and 2 hrs. later brains were collected, processed, and analyzed as described above.

[7] = tested on: middle cerebral artery occlusion infarct; experiment: Mouse MCAO model of stroke; type: in vivo
Protocol: In this animal model, a small suture is inserted into the common carotid artery and threaded directly into the circulatory system of the brain. The suture is placed such that it blocks blood flow though the middle cerebral artery (MCA occlusion), which is the primary source of blood to the forebrain. After a set period of time, here 90 min, the suture is removed and blood flow to the forebrain is restored (reperfusion). The temporary blockage of blood flow to the forebrain results in behavioral symptoms and brain pathology that mimic those seen in human stroke patients. In the brain, within 24 hr post-MCA occlusion an infarct is visible using a stain (TTC) that stains living tissue red and the infarcted area white. The infarct following a 90 min MCAO usually involves both cortical and subcortical brain regions. In this study, mice were treated for 3 days (1/day) prior to MCAO with either vehicle (0.5% methyl cellulose, 0.2% Tween-80/0.9% NaCl, n=12) or the Hh agonist X″ (20 mg/kg, po, n=11). Animals were then subjected to 90 min MCAO followed by reperfusion. Approximately 24 hr after the start of occlusion ([…] of reperfusion) mice were euthanized and the brain sectioned into 2 mm slabs. The brain slices were stained with TTC to show the infarcted area of the brain. The infarct area/total forebrain (% infarct) was analyzed by measured and statistically analyzed. Male mice (7-8 wks of age) were subjected to 90 min MCAO followed by reperfusion. Animals were then treated with either vehicle (n=11) or the Hh agonist X″ (20 mg/kg, po, n=12) at the onset of reperfusion (90 min post-occlusion). Twenty-four hours after the onset of MCAO mice were euthanized, the brain sectioned into 2 mm slabs and slices stained with TTC for infarct size analysis.

[8] = tested on: nigrostriatal pathway (striatal DA and TH); experiment: Mouse MPTP model of Parkinson's disease; type: in vivo; conditions: pretreatment 0.3, 1, 3, and 10 mg/kg po for 3 days before MPTP; seven days post-lesioning, vs vehicle

SMILES: COc1ccc(CN(C(=O)c2sc3ccccc3c2Cl)C2CCC(N)CC2)cc1-c1cccc([N+](=O)[O-])c1 (centres unmarked) [A]
stimulation of 3H-thymidine incorporation [1]: significantly stimulate 3H-thymidine incorporation
induction of Ptc-1 relative to that obtained with the optimal concentration of Hh protein (Ptc-1): ~40%
induction of Gli-1 relative to that obtained with the optimal concentration of Hh protein (Gli-1): ~40%

EC50 [2]: < 10000 nM
SMILES: COc1ccc(CN(C(=O)c2sc3ccccc3c2Cl)C2CCC(N)CC2)cc1-c1ccc(C#N)cc1 (centres unmarked) [B]
LacZ reporter gene expression in lung explants (ptc-1 (d11) lacZ lungs): significantly increased reporter gene expression and expansion of the expression domain of the transgene
upregulation of hedgehog pathway (β-galactosidase staining) [3]: clearly capable of upregulating the hedgehog pathway in vivo
LacZ reporter gene expression in kidney explants [4]: significantly increased reporter gene expression and expansion of the expression domain of the transgene
X-Gal staining of skin explants (ptc-lacZ skin punches; agonist alone): greater staining than culturing with a low dose of Hh protein alone
X-Gal staining of skin explants (ptc-lacZ skin punches; agonist and a low dose of Hh protein): staining similar to that of a substantially higher dose of Hh protein
induction of 3H-thymidine incorporation ([1]; 5.0 μM, absence of Hh protein): 10.2 fold
stimulation of 3H-thymidine incorporation [1]: significantly stimulate 3H-thymidine incorporation
induction of Ptc-1 relative to that obtained with the optimal concentration of Hh protein (Ptc-1): approximately 60%
induction of Gli-1 relative to that obtained with the optimal concentration of Hh protein (Gli-1): approximately 60%

EC50 [2]: < 1000 nM
SMILES: CNC1CCC(N(Cc2ccc(-c3cccnc3)o2)C(=O)c2sc3ccccc3c2Cl)CC1 (centres unmarked) [R]
activation of Gli-Luc reporter cell line [5]: activation of the reporter cell line

EC50 [2]: < 5 nM
SMILES: CN[C@H]1CC[C@H](N(Cc2ccc(OC)c(-c3ccc(C#N)cc3)c2)C(=O)c2sc3c(F)ccc(F)c3c2Cl)CC1 [X′′]
number of proliferating cells in the SG of the dentate gyrus [6]: increased the number of proliferating cells in the SG of the dentate gyrus
number of BrdU labeled cells in the SVZ ([6]; p<0.05): increased the number of BrdU labeled cells in the SVZ
cortical and subcortical lesion size ([7]; post-MCAO treatment 20 mg/kg po at onset of reperfusion): dramatically reduced both cortical and subcortical lesion size
size of the infarct ([7]; post-MCAO treatment 20 mg/kg po at onset of reperfusion, p<0.05): significantly decreased the size of the infarct
cortical infarct size ([7]; pre-MCAO treatment 20 mg/kg po 1/day for 3 days, p=0.052): marked reduction in cortical infarct size
total infarct size ([7]; pre-MCAO treatment 20 mg/kg po 1/day for 3 days, p=0.057): dramatically reduced
attenuation of damage to the nigrostriatal pathway (striatal DA and TH activity) [8]: ~260%
